Experimental data taken from patent publication US20260226048A1, “MULTI-CYCLIC IRAK AND FLT3 INHIBITING COMPOUNDS AND USES THEREOF” (CHILDREN'S HOSPITAL MEDICAL CENTER, priority 2023, published 2026).
Like-named read-outs stand apart in the source and are kept apart here.

Tests used:
Format in all cases: cell-based
IRAK4 = target: T1, IRAK4 (Homo sapiens, UniProt Q9NWZ3); assay: Reaction Biology NanoBRET target engagement assay in HEK-293 cells, IRAK4; settings: live HEK-293 cells transfected with Kinase-NanoLuc fusion, 1 hour
T1 sequence (Q9NWZ3 1-460): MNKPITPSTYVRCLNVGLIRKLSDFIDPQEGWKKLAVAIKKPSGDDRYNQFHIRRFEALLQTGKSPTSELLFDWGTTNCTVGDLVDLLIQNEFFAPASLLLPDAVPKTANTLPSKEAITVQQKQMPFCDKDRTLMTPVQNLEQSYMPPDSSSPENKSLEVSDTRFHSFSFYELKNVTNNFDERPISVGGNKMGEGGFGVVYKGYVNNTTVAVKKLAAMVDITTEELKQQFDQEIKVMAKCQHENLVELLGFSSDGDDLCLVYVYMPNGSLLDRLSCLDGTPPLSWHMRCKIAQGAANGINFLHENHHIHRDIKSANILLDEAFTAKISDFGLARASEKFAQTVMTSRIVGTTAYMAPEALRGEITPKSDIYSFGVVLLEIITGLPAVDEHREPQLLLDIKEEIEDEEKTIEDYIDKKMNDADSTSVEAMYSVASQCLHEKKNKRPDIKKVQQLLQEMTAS
Description: The NanoBRET assay measures kinase engagement in real time in the context of the intact cell. Unlike the previously described biochemical kinase assay methodology in Example 33, the NanoBRET assay measures the binding and activity characteristics under equilibrium conditions using full-length kinases in the presence of cellular concentrations of ATP in live, uncompromised cells. As such, the assay provides a more relevant assessment of kinase potency and selectivity that would be expected to be observed in the native cellular environment, where potency is often considerably lower than that observed in the isolated biochemical assays (Vasta, J. D. et al., (2018) Cell Chem. Biol. 25, 206-214). The assay uses a Kinase-NanoLuc® fusion vector expressing a kinase protein to which a luciferase tag has been added, a cell-permeant fluorescent NanoBRET™ tracer, a NanoLuc® substrate, and an extracellular NanoLuc® inhibitor. Upon expression of the luciferase-tagged kinase, cells will produce a strong BRET signal only in the presence of the NanoBRET™ tracer. The extracellular NanoLuc® inhibitor ensures that the BRET signal observed emanates only from live cells. Because the BRET signal has tight distance constraints, addition of the test compound will decrease the BRET signal if the compound competes with the NanoBRET™ tracer for binding to the kinase domain. Under the appropriate tracer conditions established by the manufacturer, quantitative intracellular affinity and relative potency can then be determined using Mass Action model equations.
HEK-293 cells were purchased from ATCC. FuGENEHD Transfection Reagent, Kinase-NanoLucfusion plasmids, Transfection Carrier DNA, NanoBRETTracers and dilution buffer, NanoBRETNano-Glo Substrate, Extracellular NanoLucInhibitor were obtained from Promega.
Assays were conducted following Promega assay protocol with some modifications. HEK-293 Cells were transiently transfected with Kinase-NanoLucFusion Vector DNA by FuGENEHD Transfection Reagent. Testing compounds were delivered into 384 well assay plate by Echo 550 (LabcyteInc, Sunnyvale, CA). Transfected cells were harvested and mixed with NanoBRETTracer Reagent and dispensed into 384 well plates and incubated at 37° C. in 5% C02 cell culture incubator for 1 hour. The NanoBRETNano-Glo Substrate plus Extracellular NanoLucInhibitor Solution were added into the wells of the assay plate and incubated for 2-3 minutes at room temperature. The donor emission wavelength (460 nm) and acceptor emission wavelength (600 nm) were measured in the EnVisionplate reader. The BRET Ratios were calculated. BRET Ratio=[(Acceptor sample÷Donor sample)−(Acceptor no-tracer control÷Donor no-tracer control)]. The IC50 values of compounds were calculated with Prism GraphPad program.
• 1). Cultivate HEK-293 cells (70-80% confluence) appropriately prior to assay. Trypsinize and collect HEK-293 cells. • 2). Prepare lipid: DNA complexes as follows: • a. Prepare a 10 μg/ml solution of DNA in Opti-MEM without serum that consists of the following ratios of carrier DNA and DNA encoding NanoLuc® fusion. 9.0 μg/mL of Transfection Carrier DNA, 1.0 μg/mL of NanoLuc fusion vector DNA and 1 mL of Opti-MEM without phenol red. Mix thoroughly. • b. Add 30 μl of FuGENE HD Transfection Reagent into each milliliter of DNA mixture to form lipid: DNA complex. • c. Mix by inversion 10 times. • d. Incubate at ambient temperature for 20 minutes to allow complexes to form. • 3). In a sterile, conical tube, mix 1 part of lipid:DNA complex with 20 parts of HEK-293 cells in suspension. Mix gently by inversion 5 times. • 4). Dispense cells+lipid:DNA complex into a sterile tissue culture dish and incubate for 22-24 hours.
Each test compound is delivered from the compound source plate to the wells of 384-well white NBS plate by Echo 550.
3. Preparation of Cells with NanoBRET™ Tracer Reagent • 1). […]

MOLM14 D835Y cells = assay: MOLM14 D835Y cell viability assay (Cell Titer Glo); settings: cell viability, Cell Titer Glo, 48 hours, read-out: MOLM14 D835Y IC50
Outline: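 MOLM14 cells with FLT3 D835Y or F691L kinase-domain resistance mutations seeded at 1000 cells/well and exposed to compound for 48 h under standard incubator conditions. Viability read by CellTiter-Glo luminescence after 15 min at room temperature.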

[1] = system: NF-κB-inducible SEAP reporter in THP-1-Blue NF-κB cells; assay: NF-kB SEAP reporter assay in THP-1-Blue NF-κB cells; settings: 24 hours
Outline: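 Cells (1×10^5/well) stimulated with Pam3CSK4 (1 ng/mL) or hIL1B (1 ng/mL), then after 10-20 min given 10-point 1:10 compound dilutions from 1 μM or 3 μM for 24 h at 37° C. Secreted SEAP in supernatant read with QUANTI-Blue (30-60 min, 37° C) at 620 nm.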

[2] = THP-1-Blue NF-κB cells stimulated with Pam3CSK4 (1 ng/mL), read-out: NF-κB Pam3SCK4 IC50
[3] = THP-1-Blue NF-κB cells stimulated with hIL1B (1 ng/mL), read-out: NF-κB IL1B IC50

Compound | IC50 (IRAK4) | IC50 (MOLM14 D835Y cells) | IC50 [1, 2] | IC50 [1, 3] | IC50 (MOLM14 D835Y cells; Homo sapiens, MOLM-14, 48 h)
CC(O)(c1ccc2ncc(-c3ccnc(N[C@@H]4CCCNC4)n3)n2c1)C(F)(F)F (single isomer, unassigned) [Compound 22a] | < 0.5 nM | 36 nM | – | – | –
CC(O)(c1ccc2ncc(-c3ccnc(N[C@@H]4CCCNC4)n3)n2c1)C(F)(F)F (single isomer, unassigned) [Compound 23a] | < 0.5 nM | 16 nM | 56 nM | 96 nM | –
CC(O)(c1ccc2ncc(-c3ccnc(N[C@H]4CNCC[C@@H]4F)n3)n2c1)C(F)(F)F (single isomer, unassigned) [Compound 25a] | 2 nM | – | 193 nM | 152 nM | 36 nM
CC(O)(c1ccc2ncc(-c3cncc(N[C@@H]4CCCNC4)n3)n2c1)C(F)(F)F (single isomer, unassigned) [Compound 28a] | < 0.5 nM | – | 96 nM | 149 nM | 204 nM
CC(O)(c1ccc2ncc(-c3cncc(N[C@H]4CNCC[C@@H]4F)n3)n2c1)C(F)(F)F (single isomer, unassigned) [Compound 31a] | < 0.5 nM | 162 nM | 138 nM | 100 nM | –
COc1cc2ncc(-c3nc(N[C@H]4CNCC[C@@H]4F)ncc3F)n2nc1C1CC1 [Compound 1a, 4-(6-cyclopropyl-7-methoxyimidazo[1,2-b]pyridazin-3-yl)-5-fluoro-N-((3S,4S)-4-fluoropiperidin-3-yl)pyrimidin-2-amine] | < 0.5 nM | – | 17 nM | 22 nM | 1 nM
FC(F)COc1cc2ncc(-c3ccnc(N[C@H]4CNCC[C@@H]4F)n3)n2nc1C1CC1 [Compound 4a, 4-(6-cyclopropyl-7-(2,2-difluoroethoxy)imidazo[1,2-b]pyridazin-3-yl)-N-((3 S,4S)-4-fluoropiperidin-3-yl)pyrimidin-2-amine] | 0.8 nM | – | 184 nM | 166 nM | 9 nM
F[C@H]1CCNC[C@@H]1Nc1nccc(-c2cnc3cc(OC4CC4)c(C4CC4)nn23)n1 [Compound 12a, 4-(7-cyclopropoxy-6-cyclopropylimidazo[1,2-b]pyridazin-3-yl)-N-((3S,4S)-4-fluoropiperidin-3-yl)pyrimidin-2-amine] | < 0.5 nM | – | 382 nM | 220 nM | 23 nM
COc1cc2ncc(-c3nc(N[C@H]4CNCC[C@@H]4F)ncc3F)n2nc1C(C)(C)O [Compound 45a, 2-(3-(5-fluoro-2-(((3S,4S)-4-fluoropiperidin-3-yl)amino)pyrimidin-4-yl)-7-methoxyimidazo[1,2-b]pyridazin-6-yl)propan-2-ol] | 3 nM | – | 204 nM | 351 nM | 15 nM
CC(C)(O)c1ccc2ncc(-c3nc(N[C@H]4CNCC[C@@H]4F)ncc3F)n2c1 [Compound 46a, 2-(3-(5-fluoro-2-(((3S,4S)-4-fluoropiperidin-3-yl)amino)pyrimidin-4-yl)imidazo[1,2-a]pyridin-6-yl)propan-2-ol] | 4 nM | – | 103 nM | 112 nM | 33 nM
CC(C)(O)c1ccc2ncc(-c3nc(N[C@@H]4CCCNC4)ncc3F)n2c1 [Compound 48a, (R)-2-(3-(5-fluoro-2-(piperidin-3-ylamino)pyrimidin-4-yl)imidazo[1,2-a]pyridin-6-yl)propan-2-ol] | 5 nM | – | 56 nM | 96 nM | 36 nM
COc1cc2ncc(-c3nc(N[C@H]4CNCC[C@@H]4F)ncc3F)n2nc1C1CC(F)(F)C1 [Compound 49a, 4-(6-(3,3-difluorocyclobutyl)-7-methoxyimidazo[1,2-b]pyridazin-3-yl)-5-fluoro-N-((3S,4S)-4-fluoropiperidin-3-yl)pyrimidin-2-amine] | < 0.5 nM | – | 79 nM | 89 nM | 15 nM
COc1cc2ncc(-c3ccnc(N[C@H]4CNCC[C@@H]4F)n3)n2nc1C1CCC1 [Compound 79a, 4-(6-cyclobutyl-7-methoxyimidazo[1,2-b]pyridazin-3-yl)-N-((3S,4S)-4-fluoropiperidin-3-yl)pyrimidin-2-amine] | < 0.5 nM | – | 340 nM | 271 nM | 20 nM
COc1cc2ncc(-c3nc(N[C@H]4CNCC[C@@H]4F)ncc3F)n2nc1C1COC1 [Compound 92a, 5-fluoro-N-((3S,4S)-4-fluoropiperidin-3-yl)-4-(7-methoxy-6-(oxetan-3-yl)imidazo[1,2-b]pyridazin-3-yl)pyrimidin-2-amine] | < 0.5 nM | – | 53 nM | 60 nM | 5 nM
CC(C)(O)c1cn2c(-c3nc(N[C@H]4CNCC[C@@H]4F)ncc3F)cnc2cn1 [Compound 100a, 2-(3-(5-fluoro-2-(((3S,4S)-4-fluoropiperidin-3-yl)amino)pyrimidin-4-yl)imidazo[1,2-a]pyrazin-6-yl)propan-2-ol] | 8 nM | – | 69 nM | 83 nM | 90 nM
COc1cc2ncc(-c3nc(N[C@H]4CNC[C@@H]4F)ncc3F)n2nc1N1CCCS1(=O)=O [Compound 111a, 2-(3-(5-fluoro-2-(((3S,4S)-4-fluoropyrrolidin-3-yl)amino)pyrimidin-4-yl)-7-methoxyimidazo[1,2-b]pyridazin-6-yl)isothiazolidine 1,1-dioxide] | 34 nM | – | – | – | 13 nM
COc1cc2ncc(-c3nc(N[C@H]4CNCC[C@@H]4F)ncc3F)n2nc1N1CCCS1(=O)=O [Compound 112a, 2-(3-(5-fluoro-2-(((3S,4S)-4-fluoropiperidin-3-yl)amino)pyrimidin-4-yl)-7-methoxyimidazo[1,2-b]pyridazin-6-yl)isothiazolidine 1,1-dioxide] | < 0.5 nM | – | 235 nM | 355 nM | 3 nM
